Data reported in patent US6664426B1, “Ether and ester derivatives of the perborate icosahedron” (The Regents of the University of California, priority 2000, dated 2003).

Test: Qualitative solubility in water
Format: physicochemical
Conditions: qualitative statement

| solubility in water | Substance |
| --- | --- |
| sparingly water-soluble | Cs[closo-1-CB11H12]^− |
| sparingly water-soluble | Cs2[closo-B12H12]^2− |

Further lines, the substance ahead of its results:

| Substance | solubility in water |
| --- | --- |
| closo-1,12-C2B10H12 | not water-soluble |
| Cs2[closo-B12(OH)12] [dicesium salt] | freely soluble in water |
| closo-1,12-(CH2OH)2-1,12-C2B10H10 | slightly water-soluble |
